# Assay results: US8802597B2, “Herbicidal pyrimidines” (E I du Pont de Nemours and Company, priority 2003, dated 2014)
# Like-named read-outs stand apart in the source and are kept apart here.
# How the values were obtained:
# corn (Zea mays) = test: Test C pre/postemergence; assay type: in vivo; conditions: Zea mays; for Corn plant response rating (crop injury, 0 = no effect, 100 = complete kill) at 16 g/ha: 16 g ai/ha; for Corn plant response rating (crop injury, 0 = no effect, 100 = complete kill) at 31 g/ha: 31 g ai/ha; for Corn plant response rating (crop injury, 0 = no effect, 100 = complete kill) at 62 g/ha: 62 g ai/ha; for Corn plant response rating (crop injury, 0 = no effect, 100 = complete kill) at 125 g/ha: 125 g ai/ha
# How it was run: (§1)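 We sprayed seeded pots preemergence and 2–18 cm seedlings postemergence with test chemicals in a non-phytotoxic solvent mixture including surfactant. Greenhouse plants were visually compared with untreated controls at 12 to 14 days and scored 0 (no effect) to 100 (complete control).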
# [1] = system: morningglory (Ipomoea coccinea); test: Test C pre/postemergence; assay type: in vivo; conditions: Ipomoea; for pest or weed control at 16 g/ha: 16 g ai/ha; for pest or weed control at 31 g/ha: 31 g ai/ha; for pest or weed control at 62 g/ha: 62 g ai/ha; for pest or weed control at 125 g/ha: 125 g ai/ha
# How it was run: as §1
# [2] = system: woolly cupgrass (Eriochloa villosa); test: Test C pre/postemergence; assay type: in vivo; conditions: Eriochloa villosa; for pest or weed control at 16 g/ha: 16 g ai/ha; for pest or weed control at 31 g/ha: 31 g ai/ha; for pest or weed control at 62 g/ha: 62 g ai/ha; for pest or weed control at 125 g/ha: 125 g ai/ha
# How it was run: as §1
# [3] = system: junglerice (Echinochloa colona); test: Test E flooded paddy water application; assay type: in vivo; conditions: Flood, 21 days, scale 0 to 100 (0 no effect, 100 complete control); for Plant response rating, Junglerice: 16 g ai/ha
# How it was run: (§2)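 Greenhouse pots of Tama silt loam with weeds and rice at 2.0–2.5-leaf stage, flooded to 3 cm; compounds applied directly into paddy water, depth maintained. Visual rating versus untreated controls after 21 days, 0 (no effect) to 100 (complete control); 29.5/26.7 °C, 16-h photoperiod.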
# [4] = system: early watergrass (Echinochloa oryzoides); test: Test E flooded paddy water application; assay type: in vivo; conditions: Flood, 21 days, scale 0 to 100 (0 no effect, 100 complete control); for Plant response rating, Watergrass, Early: 16 g ai/ha
# How it was run: as §2
# [5] = system: ducksalad (Heteranthera limosa); test: Test E flooded paddy water application; assay type: in vivo; conditions: Flood, 21 days, scale 0 to 100 (0 no effect, 100 complete control); for Plant response rating, Ducksalad: 16 g ai/ha
# How it was run: as §2
# [6] = system: water seeded rice seedlings (Oryza sativa cv. ‘Japonica-M202’); test: Test E flooded paddy water application; assay type: in vivo; conditions: Flood, 21 days, scale 0 to 100 (0 no effect, 100 complete control); for Plant response rating, Rice, Water Seeded: 16 g ai/ha
# How it was run: as §2
# [7] = system: smallflower umbrella sedge (Cyperus difformis); test: Test E flooded paddy water application; assay type: in vivo; conditions: Flood, 21 days, scale 0 to 100 (0 no effect, 100 complete control); for Plant response rating, Sedge, Umbrella: 16 g ai/ha
# How it was run: as §2
# [8] = post-emergence, Postemergence, read-out: Plant response rating (scale of 0 to 100), Corn
# [9] = post-emergence, Postemergence, scale 0 to 100 (0 no effect, 100 complete control), read-out: Corn plant response rating
# [10] = pre-emergence, Preemergence, scale 0 to 100, 0 no effect, 100 complete control, read-out: Plant response rating, Corn
# [11] = post-emergence, Postemergence, read-out: Plant response rating (scale of 0 to 100), Morningglory
# [12] = post-emergence, Postemergence, scale 0 to 100 (0 no effect, 100 complete control), read-out: Morningglory plant response rating
# [13] = pre-emergence, Preemergence, scale 0 to 100, 0 no effect, 100 complete control, read-out: Plant response rating, Morningglory
# [14] = post-emergence, Postemergence, read-out: Plant response rating (scale of 0 to 100), Cupgrass, Woolly
# [15] = post-emergence, Postemergence, scale 0 to 100 (0 no effect, 100 complete control), read-out: Cupgrass, Woolly plant response rating
# [16] = pre-emergence, Preemergence, scale 0 to 100, 0 no effect, 100 complete control, read-out: Plant response rating, Cupgrass, Woolly
compound,measurement,setting,value
"Nc1nc(-c2ccc(Cl)cc2)nc(C(=O)O)c1Cl [Compound 65, 6-amino-5-chloro-2-(4-chlorophenyl)-4-pyrimidinecarboxylic acid]","Corn plant response rating (crop injury, 0 = no effect, 100 = complete kill) at 16 g/ha",corn (Zea mays); [8],5%
same,"Corn plant response rating (crop injury, 0 = no effect, 100 = complete kill) at 31 g/ha",corn (Zea mays); [8],90%
same,"Corn plant response rating (crop injury, 0 = no effect, 100 = complete kill) at 62 g/ha",corn (Zea mays); [8],90%
same,"Corn plant response rating (crop injury, 0 = no effect, 100 = complete kill) at 125 g/ha",corn (Zea mays); [9],90%
same,"Corn plant response rating (crop injury, 0 = no effect, 100 = complete kill) at 16 g/ha",corn (Zea mays); [10],0%
same,"Corn plant response rating (crop injury, 0 = no effect, 100 = complete kill) at 31 g/ha",corn (Zea mays); [10],0%
same,"Corn plant response rating (crop injury, 0 = no effect, 100 = complete kill) at 62 g/ha",corn (Zea mays); [10],0%
same,"Corn plant response rating (crop injury, 0 = no effect, 100 = complete kill) at 125 g/ha","corn (Zea mays); pre-emergence, Preemergence, scale 0 to 100, read-out: Plant response rating, Corn",30%
same,pest or weed control at 16 g/ha,[1]; [11],90%
same,pest or weed control at 31 g/ha,[1]; [11],90%
same,pest or weed control at 62 g/ha,[1]; [11],90%
same,pest or weed control at 125 g/ha,[1]; [12],95%
same,pest or weed control at 16 g/ha,[1]; [13],0%
same,pest or weed control at 31 g/ha,[1]; [13],0%
same,pest or weed control at 62 g/ha,[1]; [13],20%
same,pest or weed control at 125 g/ha,"[1]; pre-emergence, Preemergence, scale 0 to 100, read-out: Plant response rating, Morningglory",100%
same,pest or weed control at 16 g/ha,[2]; [14],60%
same,pest or weed control at 31 g/ha,[2]; [14],80%
same,pest or weed control at 62 g/ha,[2]; [14],85%
same,pest or weed control at 125 g/ha,[2]; [15],85%
same,pest or weed control at 16 g/ha,[2]; [16],0%
same,pest or weed control at 31 g/ha,[2]; [16],0%
same,pest or weed control at 62 g/ha,[2]; [16],5%
same,pest or weed control at 125 g/ha,"[2]; pre-emergence, Preemergence, scale 0 to 100, read-out: Plant response rating, Cupgrass, Woolly",70%
same,melting point,,158 to 160 °C
same,Junglerice plant response rating,[3]; 32 g ai/ha,0
same,Junglerice plant response rating,[3]; 64 g ai/ha,0
same,Junglerice plant response rating,[3]; 125 g ai/ha,40
same,Junglerice plant response rating,[3]; 250 g ai/ha,40
same,"Plant response rating, Junglerice",[3],0
same,"Watergrass, Early plant response rating",[4]; 32 g ai/ha,0
same,"Watergrass, Early plant response rating",[4]; 64 g ai/ha,0
same,"Watergrass, Early plant response rating",[4]; 125 g ai/ha,0
same,"Watergrass, Early plant response rating",[4]; 250 g ai/ha,10
same,"Plant response rating, Watergrass, Early",[4],0
same,Ducksalad plant response rating,[5]; 32 g ai/ha,100
same,Ducksalad plant response rating,[5]; 64 g ai/ha,100
same,Ducksalad plant response rating,[5]; 125 g ai/ha,100
same,Ducksalad plant response rating,[5]; 250 g ai/ha,100
same,"Plant response rating, Ducksalad",[5],100
same,"Rice, Water Seeded plant response rating",[6]; 32 g ai/ha,0
same,"Rice, Water Seeded plant response rating",[6]; 64 g ai/ha,0
same,"Rice, Water Seeded plant response rating",[6]; 125 g ai/ha,0
same,"Rice, Water Seeded plant response rating",[6]; 250 g ai/ha,10
same,"Plant response rating, Rice, Water Seeded",[6],0
same,"Sedge, Umbrella plant response rating",[7]; 32 g ai/ha,80
same,"Sedge, Umbrella plant response rating",[7]; 64 g ai/ha,85
same,"Sedge, Umbrella plant response rating",[7]; 125 g ai/ha,100
same,"Sedge, Umbrella plant response rating",[7]; 250 g ai/ha,100
same,"Plant response rating, Sedge, Umbrella",[7],20
"CCOC(=O)c1nc(-c2ccc(Br)cc2)nc(N)c1Cl [Compound 94, ethyl 6-amino-2-(4-bromophenyl)-5-chloro-4-pyrimidinecarboxylate]","Corn plant response rating (crop injury, 0 = no effect, 100 = complete kill) at 16 g/ha",corn (Zea mays); [8],10%
same,"Corn plant response rating (crop injury, 0 = no effect, 100 = complete kill) at 31 g/ha",corn (Zea mays); [8],35%
same,"Corn plant response rating (crop injury, 0 = no effect, 100 = complete kill) at 62 g/ha",corn (Zea mays); [8],35%
same,"Corn plant response rating (crop injury, 0 = no effect, 100 = complete kill) at 125 g/ha",corn (Zea mays); [9],60%
same,pest or weed control at 16 g/ha,[1]; [11],60%
same,pest or weed control at 31 g/ha,[1]; [11],80%
same,pest or weed control at 62 g/ha,[1]; [11],90%
same,pest or weed control at 125 g/ha,[1]; [12],100%
same,pest or weed control at 16 g/ha,[2]; [14],60%
same,pest or weed control at 31 g/ha,[2]; [14],80%
same,pest or weed control at 62 g/ha,[2]; [14],90%
same,pest or weed control at 125 g/ha,[2]; [15],90%
same,melting point,,136 to 137 °C
same,Junglerice plant response rating,[3]; 32 g ai/ha,0
same,Junglerice plant response rating,[3]; 64 g ai/ha,0
same,Junglerice plant response rating,[3]; 125 g ai/ha,0
same,Junglerice plant response rating,[3]; 250 g ai/ha,0
same,"Plant response rating, Junglerice",[3],0
same,"Watergrass, Early plant response rating",[4]; 32 g ai/ha,0
same,"Watergrass, Early plant response rating",[4]; 64 g ai/ha,0
same,"Watergrass, Early plant response rating",[4]; 125 g ai/ha,0
same,"Watergrass, Early plant response rating",[4]; 250 g ai/ha,0
same,"Plant response rating, Watergrass, Early",[4],0
same,Ducksalad plant response rating,[5]; 32 g ai/ha,100
same,Ducksalad plant response rating,[5]; 64 g ai/ha,100
same,Ducksalad plant response rating,[5]; 125 g ai/ha,100
same,Ducksalad plant response rating,[5]; 250 g ai/ha,100
same,"Plant response rating, Ducksalad",[5],100
same,"Rice, Water Seeded plant response rating",[6]; 32 g ai/ha,0
same,"Rice, Water Seeded plant response rating",[6]; 125 g ai/ha,10
same,"Rice, Water Seeded plant response rating",[6]; 250 g ai/ha,10
same,"Plant response rating, Rice, Water Seeded",[6],0
same,"Sedge, Umbrella plant response rating",[7]; 32 g ai/ha,100
same,"Sedge, Umbrella plant response rating",[7]; 64 g ai/ha,100
same,"Sedge, Umbrella plant response rating",[7]; 125 g ai/ha,100
same,"Sedge, Umbrella plant response rating",[7]; 250 g ai/ha,100
same,"Plant response rating, Sedge, Umbrella",[7],100
"COC(=O)c1nc(-c2ccc(Br)cc2)nc(N)c1Cl [Compound 96, methyl 6-amino-2-(4-bromophenyl)-5-chloro-4-pyrimidinecarboxylate]",melting point,,223 to 224 °C
same,Junglerice plant response rating,[3]; 32 g ai/ha,0
same,Junglerice plant response rating,[3]; 64 g ai/ha,0
same,Junglerice plant response rating,[3]; 125 g ai/ha,0
same,Junglerice plant response rating,[3]; 250 g ai/ha,0
same,"Plant response rating, Junglerice",[3],0
same,"Watergrass, Early plant response rating",[4]; 32 g ai/ha,0
same,"Watergrass, Early plant response rating",[4]; 64 g ai/ha,0
same,"Watergrass, Early plant response rating",[4]; 125 g ai/ha,0
same,"Watergrass, Early plant response rating",[4]; 250 g ai/ha,0
same,"Plant response rating, Watergrass, Early",[4],0
same,Ducksalad plant response rating,[5]; 32 g ai/ha,100
same,Ducksalad plant response rating,[5]; 64 g ai/ha,100
same,Ducksalad plant response rating,[5]; 125 g ai/ha,100
same,Ducksalad plant response rating,[5]; 250 g ai/ha,100
same,"Plant response rating, Ducksalad",[5],100
same,"Rice, Water Seeded plant response rating",[6]; 32 g ai/ha,0
same,"Rice, Water Seeded plant response rating",[6]; 64 g ai/ha,0
same,"Rice, Water Seeded plant response rating",[6]; 125 g ai/ha,10
same,"Rice, Water Seeded plant response rating",[6]; 250 g ai/ha,10
same,"Plant response rating, Rice, Water Seeded",[6],0
same,"Sedge, Umbrella plant response rating",[7]; 32 g ai/ha,100
same,"Sedge, Umbrella plant response rating",[7]; 64 g ai/ha,100
same,"Sedge, Umbrella plant response rating",[7]; 125 g ai/ha,100
same,"Sedge, Umbrella plant response rating",[7]; 250 g ai/ha,100
same,"Plant response rating, Sedge, Umbrella",[7],100
